# Where two headings read alike, the source gives them in different places.
# Legend:
# [1] = assay type: physicochemical; settings: RT
# Method: HPLC analysis was carried out on an Agilent 1260 Infinity chromatograph, using a Hichrom C18 column 100×4.6 mm, 3.5 m, at 40° C. Method details were as follows: [table] Photostability of NaCDC Form B was evaluated by exposing it in solid state and in MeOH solutions to UV 254 nm light for 48 hours in clear, amber, and aluminum foil wrapped vials. The solutions were prepared by weighing around 10 mg NaCDC Form B and mixing it with 500 μL MeOH. The solids and solutions were sampled after 48 hours and analyzed by HPLC, in order to assess degradation. In parallel, XRPD analysis was performed on the recovered solids.
# [2] = Polymorph screening: slow evaporation; assay type: physicochemical
# Method: Five stock solutions (with MeOH, water, 2,2,2-trifluoroethanol, MeOH:EtOAc (1:1 v/v) and MeOH:acetone (1:1 v/v)) were prepared with NaCDC Form B at RT. The final concentration of each solution was near that obtained from the Solubility Studies described in Example 8. Around 19-23 mg of NaCDC Form B was weighed into 1.6 mL HPLC vials (or 8 mL flask in the case of stock solutions with MeOH:EtOAc and MeOH:acetone) and dissolved in appropriate solvents at RT. In the case of the stock solution with water, around 40 mg NaCDC Form B was used. The experiments were kept at RT for 1 h with stirring (500 rpm) and then the solutions were filtered with 0.45 μm PTFE filters. During filtration of the stock solution with water, a foaming phenomenon was observed, and therefore, filtration was performed slowly and in several steps. The filtered solutions were then evaporated slowly under atmospheric pressure at 25° C. (experiments EV01-05) or at 50° C. (experiments EV06-09). After complete evaporation of the solvent, the solids were recovered and analyzed by XRPD. Depending on the results obtained from the XRPD analysis and also material availability, some experiments were analyzed by HPLC and TG/DSC.
# [3] = Heating of solid at 315° C. / 360° C., then XRPD and HPLC; assay type: physicochemical
# Method: Based on the results obtained from the TG/DSC analysis, a sample of NaCDC Form B was heated at 315° C. and another sample at 360° C. After heating, the samples were cooled to room temperature and analyzed by XRPD (FIG. 16). […] The material obtained after heating a sample at 360° C. was amorphous.
# [4] = Intrinsic dissolution, USP rotating disk apparatus; assay type: physicochemical
# Method: For the intrinsic dissolution studies, the following HPLC method was used: [table] Intrinsic dissolution profiles of NaCDC Form A and Form B were determined from a drug disk of constant surface area using a USP rotating disk apparatus in phosphate buffer (pH 7.4) at 37° C. […] A typical apparatus consisted of a punch and a die, whose base is attached to a surface plate. […] The punch was then inserted in the die cavity and the test material was compressed with a hydraulic press. A non-disintegrating compact of the material was formed in the die cavity with a single face of defined area exposed on the bottom of the die. The die assembly was then attached to a shaft with a holder and the surface plate was removed. The shaft holding the die assembly was positioned into the dissolution medium at a distance not less than 1.0 cm from the bottom of the vessel. In this procedure, fluid flow was generated by the rotation of the die. The amount of material dissolved was measured as a function of time. In particular, the cumulative amount dissolved at each time point was corrected for losses due to sampling. […] Method parameters are summarized below: [table]
# [5] = Polymorph screening: vapor diffusion onto solids; assay type: physicochemical
# Method: Around 20 mg of NaCDC Form B were weighed into 1.6 mL HPLC vials. Each of the aforementioned vials was inserted individually into 40 mL vessels containing initially 0.5 mL of the corresponding solvent. The vessels were isolated from light and atmosphere and allowed to stand for 12 days, in a closed cabinet at 25° C. or in an oven at 50° C. After the experimental time, the majority of the samples remained solids/wet solids (experiments VDS02-12), which were harvested and analyzed by XRPD. […] All solids were analyzed by XRPD, and depending on the results obtained, some experiments were also analyzed by HPLC and TG/DSC.
# [6] = Polymorph screening: slurry with sonication; assay type: physicochemical; settings: sonicated 15 minutes then 5° C. for 30 minutes, 6 cycles
# Method: Around 15 mg of NaCDC Form B was weighed into HPLC vials and 0.4 mL of corresponding solvents were added at RT. The slurries were sonicated for 15 minutes and then left to cool at 5° C. for 30 minutes—this cycle was repeated 6 times. At the end of the sixth cycle, all experiments were air-dried on filter paper and the recovered solids were analyzed by XRPD. Based on the XRPD data, some experiments were analyzed by HPLC.
# [7] = assay type: physicochemical; settings: pH 7.4
# Method: Solubility curve measurements of NaCDC Form A and Form B were performed using a Crystal16 automatic crystallizer (Technobis Crystallization Systems), having an array of 16 microreactors equipped with turbidimeters for the determination of clear and cloud points. Samples of four different concentrations for each crystalline form were prepared by weighing accurately different amounts of each sample and adding 1000 μL of phosphate buffer (pH 7.4) to each vial. The suspensions thus obtained were stirred using a magnetic stirrer and heated from 0° C. to 90° C. at 0.5° C./min. The clear point for each sample was determined and plotted to obtain a crystallization curve (FIG. 13).
# [8] = EV07, 2,2,2-Trifluoroethanol (TFE) 50.88 mg/mL, solids after 4 days at 50° C. and atm. pres.
structure (smiles),measurement,setting,value
"C[C@H](CCC(=O)[O-])[C@H]1CC[C@H]2[C@@H]3[C@H](O)C[C@@H]4C[C@H](O)CC[C@]4(C)[C@H]3CC[C@]12C.[Na+] [Form B, sodium chenodeoxycholate]","HPLC (%) at 212 nm, after 48h","[1]; ST01: UV 254 nm, solid, clear vial",94.4%
same,"HPLC (%) at 212 nm, after 48h","[1]; ST02: UV 254 nm, solid, amber vial",95.0%
same,"HPLC (%) at 212 nm, after 48h","[1]; ST03: UV 254 nm, solid, control - dark",95.4%
same,"HPLC (%) at 212 nm, after 48h","[1]; ST04: UV 254 nm, MeOH solution, clear vial",91.4%
same,"HPLC (%) at 212 nm, after 48h","[1]; ST05: UV 254 nm, MeOH solution, amber vial",91.0%
same,"HPLC (%) at 212 nm, after 48h","[1]; ST06: UV 254 nm, MeOH solution, control - dark",94.2%
same,HPLC purity (%) at 212 nm,"[2]; EV01, Methanol (MeOH) 100.80 mg/mL, solids after 4 days at 25-30° C. and atm. pres.",91.70%
same,HPLC purity (%) at 212 nm,"[2]; EV02, Water (H2O) 204.39 mg/mL, solids after 5 days at 25-30° C. and atm. pres.",93.71%
same,HPLC purity (%) at 212 nm,"[2]; EV03, 2,2,2-Trifluoroethanol (TFE) 50.88 mg/mL, solids after 7 days at 25-30° C. and atm. pres.",88.27%
same,HPLC purity (%) at 212 nm,"[2]; EV04, MeOH:EtOAc (1:1 v/v) 20.49 mg/mL, solids after 4 days at 25-30° C. and atm. pres.",86.46%
same,HPLC purity (%) at 212 nm,"[2]; EV05, MeOH:Acetone (1:1 v/v) 20.19 mg/mL, solids after 4 days at 25-30° C. and atm. pres.",90.22%
same,HPLC purity (%) at 212 nm,"[2]; EV06, Water (H2O) 204.39 mg/mL, solids after several hours (overnight) at 50° C. and atm. pres.",93.24%
same,HPLC purity (%) at 212 nm,[2]; [8],91.69%
same,XRPD,[2]; [8],"S4 + SM, P.O."
same,HPLC purity (%) at 212 nm,"[2]; EV08, MeOH:EtOAc (1:1 v/v) 20.49 mg/mL, solids after several hours (overnight) at 50° C. and atm. pres.",71.43%
same,HPLC purity (%) at 212 nm,"[2]; EV09, MeOH:Acetone (1:1 v/v) 20.19 mg/mL, solids after 4 days at 50° C. and atm. pres.",87.00%
same,XRPD after heating,[3]; heated at 315° C.,different diffractogram than the starting material
same,XRPD after heating,[3]; heated at 360° C.,amorphous
same,HPLC purity after heating,"[3]; sample heated at 315° C., cooled to room temperature",66.9%
same,solid form after compression (XRPD),[4]; 2 tons for 2 minutes,no change in solid form
same,IDR (intrinsic dissolution rate),"[4]; USP phosphate buffer pH 7.4, 37° C., 100 rpm, disk 0.5024 cm^2",0.9218 mg · min^−1 · cm^−2
same,HPLC purity (%) at 212 nm,"[5]; VDS01, Methanol (MeOH) vapor, 25° C., 12 days, fine suspension, evap. at 30° C., 21 mbar, overnight",89.99%
same,XRPD,"[5]; VDS03, Ethyl acetate (EtOAc) vapor, diffusion at 25° C. after 12 days","SM, P.O."
same,HPLC purity (%) at 212 nm,"[5]; VDS05, Ethanol (EtOH) vapor, diffusion at 50° C. after 12 days",92.11%
same,XRPD,"[5]; VDS06, 2-Propanol (2-PrOH) vapor, diffusion at 50° C. after 12 days","SM, P.O."
same,XRPD,"[5]; VDS08, Diisopropyl ether vapor, diffusion at 50° C. after 12 days","SM, P.O."
same,HPLC purity (%) at 212 nm,"[5]; VDS09, 2,2,2-Trifluoroethanol (TFE) vapor, diffusion at 50° C. after 12 days, slurry air-dried on filter paper",90.89%
same,XRPD,"[5]; VDS11, Acetonitrile (MeCN) vapor, diffusion at 50° C. after 12 days","SM, P.O."
same,HPLC purity (%) at 212 nm,"[5]; VDS12, Methyl ethyl ketone (MEK) vapor, diffusion at 50° C. after 12 days",93.65%
same,HPLC purity (%) at 212 nm,"[6]; SLS03, Ethyl acetate (EtOAc)",90.42%
same,HPLC purity (%) at 212 nm,"[6]; SLS08, EtOH:MeCN (1:1 v/v)",79.23%
same,HPLC purity (%) at 212 nm,"[6]; SLS09, EtOH:n-Heptane (1:1 v/v)",89.68%
same,solubility compared to NaCDC Form A (solubility curve),[7],slightly higher solubility

# Source: patent US20250206773A1, “FORMS AND COMPOSITIONS OF SODIUM CHENODEOXYCHOLATE” (Syntis Bio, Inc., priority 2022, published 2025)
